SMILES strings stand for the structures.

In the first assay the target is T1, Cdc7 (BEV coexpressed huCDC7/DBF4) (Homo sapiens, UniProt O00311).
T1 construct: made in house; host or cells: baculovirus expression vector (BEV) system
T1 sequence (O00311 whole entry): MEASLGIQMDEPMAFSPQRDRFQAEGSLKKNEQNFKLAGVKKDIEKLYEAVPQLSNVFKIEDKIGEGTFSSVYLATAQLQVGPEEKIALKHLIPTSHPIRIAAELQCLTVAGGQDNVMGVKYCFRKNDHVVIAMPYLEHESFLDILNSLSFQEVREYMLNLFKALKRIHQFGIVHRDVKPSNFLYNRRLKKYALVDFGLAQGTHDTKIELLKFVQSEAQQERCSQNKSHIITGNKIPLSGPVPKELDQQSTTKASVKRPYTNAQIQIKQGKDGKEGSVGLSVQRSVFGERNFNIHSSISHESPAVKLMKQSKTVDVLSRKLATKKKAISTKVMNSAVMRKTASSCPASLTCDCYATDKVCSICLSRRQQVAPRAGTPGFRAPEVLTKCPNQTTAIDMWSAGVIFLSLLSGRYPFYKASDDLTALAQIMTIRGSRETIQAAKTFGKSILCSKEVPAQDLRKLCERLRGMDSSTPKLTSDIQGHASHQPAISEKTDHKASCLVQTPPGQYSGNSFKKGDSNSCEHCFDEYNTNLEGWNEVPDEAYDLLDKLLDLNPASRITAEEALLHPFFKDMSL
T1 sequence (Q9UBU7 whole entry partner): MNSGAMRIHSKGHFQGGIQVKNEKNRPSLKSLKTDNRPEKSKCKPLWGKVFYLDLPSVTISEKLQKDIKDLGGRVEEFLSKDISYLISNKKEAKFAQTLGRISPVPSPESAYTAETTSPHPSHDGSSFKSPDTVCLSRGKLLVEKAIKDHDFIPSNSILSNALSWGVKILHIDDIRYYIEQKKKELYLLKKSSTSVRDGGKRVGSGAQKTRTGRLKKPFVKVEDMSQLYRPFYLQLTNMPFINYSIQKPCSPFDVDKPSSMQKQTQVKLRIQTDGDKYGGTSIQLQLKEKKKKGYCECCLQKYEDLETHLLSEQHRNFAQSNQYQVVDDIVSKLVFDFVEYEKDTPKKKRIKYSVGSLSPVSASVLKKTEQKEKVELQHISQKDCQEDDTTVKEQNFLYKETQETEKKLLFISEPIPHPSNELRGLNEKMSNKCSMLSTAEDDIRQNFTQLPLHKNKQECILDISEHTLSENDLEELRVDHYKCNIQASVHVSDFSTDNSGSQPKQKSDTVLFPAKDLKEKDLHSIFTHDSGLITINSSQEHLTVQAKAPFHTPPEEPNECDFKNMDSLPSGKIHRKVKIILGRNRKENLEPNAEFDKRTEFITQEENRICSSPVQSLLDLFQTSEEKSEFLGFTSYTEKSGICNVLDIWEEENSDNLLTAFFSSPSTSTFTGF
The assay can be described thus: Cdc7 enzyme inhibition assay ([33P]-ATP, biotinylated peptide substrate, FlashPlate). The format is biochemical. To be noted: Table 1; Ki from IC50 assuming ATP-competitive inhibition, apparent ATP Km 0.7 μM, 1 μM ATP. The protocol:
Cdc7 (BEV coexpressed huCDC7/DBF4) is prepared internally. Cdc7 assays are conducted as follows with final concentrations as listed. In 384-well v-bottom polypropylene plates, 6 L compound (2% DMSO), is mixed with 6 µL of Cdc7 (2 μg/mL), and Jerini peptide substrate A-All (biotin-C6linker-TPSDSLIYDDGLS) (2 μM), followed by immediate initiation with 6 L […] (1 μM, 20 mCi/μmol) using a reaction buffer comprising 25 mM HEPES, pH 7.5, 1 mM DTT, 10 mM MgCl2, 100 μM Na3VO4, 0.075 mg/ml Triton X-100. Reactions are quenched after 1 hr by the addition of 90 L stop buffer (50 mM EDTA, 2M NaCl). 85 μL of the stopped reactions are transferred to 384-well streptavidin-coated plates (FlashPlate Plus, Perkin Elmer), incubated 30 minutes at room temperature and washed 3 times with 0.05% Tween-20/PBS using an ELX-405 automated plate washer (BioTek), and counted on a TopCount Scintillation Plate Reader (Packard). IC50 values are determined via non-linear regression fitting of enzyme inhibition data and corresponding Ki values are generated assuming ATP-competitive (equilibrium) inhibition and using the experimentally determined apparent ATP Km of 0.7 μM (as determined using the above assay condition, but varying ATP). Table 1 depicts enzyme inhibition data (Ki) for exemplary compounds. In Table 1, “A” represents a Ki of less than 10 nM, “B” represents a Ki of between 10 nM and 100 nM, and “C” represents a Ki of greater than 100 nM.
Table 2 depicts enzyme inhibition data (Ki) for examples 27-43 using the same assay as example 26. In Table 2, “A” represents a Ki of less than 10 nM, “B” represents a Ki of between 10 nM and 100 nM, and “C” represents a Ki of greater than 100 nM.
Consider `O=C1CCC(C(=O)N[C@H]2CC[C@H](Nc3cc(-c4c[nH]c5nccnc45)cc(Cl)n3)CC2)N1` (relative stereo) [Example 20, N-(trans 4-(6-chloro-4-(5H-pyrrolo[3,2-b]pyrazin-7-yl)pyridin-2-ylamino)cyclohexyl)-5-oxopyrrolidine-2-carboxamide], for which the Ki was less than 10 nM.

As to `Clc1cc(-c2c[nH]c3nccnc23)cc(NC2CCCCC2)n1` [Example 1, 6-chloro-N-cyclohexyl-4-(5H-pyrrolo[3,2-b]pyrazin-7-yl)pyridin-2-amine], the Ki is less than 10 nM.

As for `O[C@H]1CC[C@H](Nc2cc(-c3c[nH]c4nccnc34)cc(Cl)n2)CC1` [Example 2, Trans 4-(6-chloro-4-(5H-pyrrolo[3,2-b]pyrazin-7-yl)pyridin-2-ylamino)cyclohexanol], the Ki was less than 10 nM.

Take `Clc1cc(-c2c[nH]c3nccnc23)cc(NC2CCCNC2)n1` (centres unmarked) [Example 3, 6-chloro-N-(piperidin-3-yl)-4-(5H-pyrrolo[2,3-b]pyrazin-7-yl)pyridin-2-amine]: the Ki was less than 10 nM.

On to `CCN1CCCC(Nc2cc(-c3c[nH]c4nccnc34)cc(Cl)n2)C1` (centres unmarked) [Example 4, 6-chloro-N-(1-ethylpiperidin-3-yl)-4-(5H-pyrrolo[2,3-b]pyrazin-7-yl)pyridin-2-amine], for which the Ki is less than 10 nM.

Consider `O=C(C1CC1)N1CCCC(Nc2cc(-c3c[nH]c4nccnc34)cc(Cl)n2)C1` (centres unmarked) [Example 5, (3-(6-chloro-4-(5H-pyrrolo[2,3-b]pyrazin-7-yl)pyridin-2-ylamino)piperidin-1-yl)(cyclopropyl)methanone], for which the Ki was less than 10 nM.

`CS(=O)(=O)N1CCCC(Nc2cc(-c3c[nH]c4nccnc34)cc(Cl)n2)C1` (centres unmarked) [Example 6, 6-chloro-N-(1-(methylsulfonyl)piperidin-3-yl)-4-(5H-pyrrolo[2,3-b]pyrazin-7-yl)pyridin-2-amine]: the Ki is less than 10 nM.

With `N[C@H]1CC[C@H](Nc2cc(-c3c[nH]c4nccnc34)cc(Cl)n2)CC1` [Example 7, Trans N^1-(6-chloro-4-(5H-pyrrolo[2,3-b]pyrazin-7-yl)pyridin-2-yl)cyclohexane-1,4-diamine], the Ki was less than 10 nM.

For the compound `O=C(N[C@H]1CC[C@H](Nc2cc(-c3c[nH]c4nccnc34)cc(Cl)n2)CC1)C1CC1` [Example 8, N-(trans-4-(6-chloro-4-(5H-pyrrolo[2,3-b]pyrazin-7-yl)pyridin-2-ylamino)cyclohexyl)cyclopropanecarboxamide], the Ki was less than 10 nM.

As to `CN(C)[C@H]1CC[C@H](Nc2cc(-c3c[nH]c4nccnc34)cc(Cl)n2)CC1` [Example 9, trans-N^1-(6-chloro-4-(5H-pyrrolo[2,3-b]pyrazin-7-yl)pyridin-2-yl)-N^4,N^4-dimethylcyclohexane-1,4-diamine], the Ki is less than 10 nM.

With `CS(=O)(=O)N1CCCC(CNc2cc(-c3c[nH]c4nccnc34)cc(Cl)n2)C1` (centres unmarked) [Example 10, 6-chloro-N-((1-(methylsulfonyl)piperidin-3-yl)methyl)-4-(5H-pyrrolo[2,3-b]pyrazin-7-yl)pyridin-2-amine], the Ki was less than 10 nM.

Turning to `O=C(NC1CCCC(Nc2cc(-c3c[nH]c4nccnc34)cc(Cl)n2)C1)C1CC1` (centres unmarked) [Example 11, N-(3-(6-chloro-4-(5H-pyrrolo[2,3-b]pyrazin-7-yl)pyridin-2-ylamino)cyclohexyl)cyclopropanecarboxamide], the Ki is less than 10 nM.

With `CN(C)C1CCCC(Nc2cc(-c3c[nH]c4nccnc34)cc(Cl)n2)C1` (centres unmarked) [Example 12, N^1-(6-chloro-4-(5H-pyrrolo[2,3-b]pyrazin-7-yl)pyridin-2-yl)-N^3,N^3-dimethylcyclohexane-1,3-diamine], the Ki is less than 10 nM.

Turning to `CS(=O)(=O)NC1CCCC(Nc2cc(-c3c[nH]c4nccnc34)cc(Cl)n2)C1` (centres unmarked) [Example 13, N-(3-(6-chloro-4-(5H-pyrrolo[2,3-b]pyrazin-7-yl)pyridin-2-ylamino)cyclohexyl)methanesulfonamide], the Ki was less than 10 nM.

On to `CCCCC(=O)Nc1cc(-c2c[nH]c3nccnc23)cc(Cl)n1` [Example 14, N-(6-chloro-4-(5H-pyrrolo[2,3-b]pyrazin-7-yl)pyridin-2-yl)pentanamide], for which the Ki is less than 10 nM.

For the compound `O=C(Nc1cc(-c2c[nH]c3nccnc23)cc(Cl)n1)c1cccnc1` [Example 15, N-(6-chloro-4-(5H-pyrrolo[2,3-b]pyrazin-7-yl)pyridin-2-yl)nicotinamide], the Ki was less than 10 nM.

Turning to `O=C(Nc1cc(-c2c[nH]c3nccnc23)cc(Cl)n1)C1CCNCC1` [Example 16, N-(6-chloro-4-(5H-pyrrolo[2,3-b]pyrazin-7-yl)pyridin-2-yl)piperidine-4-carboxamide], the Ki is less than 10 nM.

In the case of `O=C(Nc1cc(-c2c[nH]c3nccnc23)cc(Cl)n1)c1ccccc1` [Example 17, N-(6-chloro-4-(5H-pyrrolo[2,3-b]pyrazin-7-yl)pyridin-2-yl)benzamide], the Ki was in the range of 10 to 100 nM.

Consider `Nc1cc(-c2c[nH]c3nccnc23)cc(Cl)n1` [Example 18, 6-chloro-4-(5H-pyrrolo[2,3-b]pyrazin-7-yl)pyridin-2-amine], for which the Ki was less than 10 nM.

For the compound `CC(C)(CN)CNc1cc(-c2c[nH]c3nccnc23)cc(Cl)n1` [Example 19, N^1-(6-chloro-4-(5H-pyrrolo[2,3-b]pyrazin-7-yl)pyridin-2-yl)-2,2-dimethylpropane-1,3-diamine], the Ki is less than 10 nM.

On to `Clc1cc(-c2c[nH]c3nccnc23)nc(NC2CCCCC2)n1` [Example 21, 4-chloro-N-cyclohexyl-6-(5H-pyrrolo[3,2-b]pyrazin-7-yl)pyrimidin-2-amine], for which the Ki is greater than 100 nM.

For `CCn1cc(-c2cc(Cl)nc(N[C@H]3CC[C@H](NC(=O)C4CC4)CC3)c2)c2nccnc21` [Example 22], the Ki is greater than 100 nM.

In the case of `CN(C)CC(=O)NC1CCCC(Nc2cc(-c3c[nH]c4nccnc34)cc(Cl)n2)C1` (centres unmarked) [Example 23, N-(3-(6-chloro-4-(5H-pyrrolo[2,3-b]pyrazin-7-yl)pyridin-2-ylamino)cyclohexyl)-2-(dimethylamino)acetamide], the Ki was less than 10 nM.

With `CCn1cc(-c2cc(Cl)nc(NC3CCCC(NC(=O)CN(C)C)C3)c2)c2nccnc21` (centres unmarked) [Example 24], the Ki is greater than 100 nM.

For `O=S(=O)(NC1CCCC(Nc2cc(-c3c[nH]c4nccnc34)cc(Cl)n2)C1)c1ccco1` (centres unmarked) [Example 25, N-(3-(6-chloro-4-(5H-pyrrolo[2,3-b]pyrazin-7-yl)pyridin-2-ylamino)cyclohexyl)furan-2-sulfonamide], the Ki is less than 10 nM.

Still in this assay, the particulars now being: Table 2; same assay as example 26.
`CCN1CCC(C(=O)N[C@H]2CC[C@H](Nc3cc(-c4c[nH]c5nccnc45)cc(Cl)n3)CC2)C1` (relative stereo) [Example 29, N-(trans-4-{[6-chloro-4-(5H-pyrrolo[2,3-b]pyrazin-7-yl)pyridin-2-yl]amino}cyclohexyl)-1-ethylpyrrolidine-3-carboxamide] had a Ki of less than 10 nM.

Consider `C[C@@H](C(=O)N[C@H]1CC[C@H](Nc2cc(-c3c[nH]c4nccnc34)cc(Cl)n2)CC1)N(C)C` (relative stereo) [Example 32, N-(trans-4-{[6-chloro-4-(5H-pyrrolo[2,3-b]pyrazin-7-yl)pyridin-2-yl]amino}cyclohexyl)-N^2,N^2-dimethylalaninamide], for which the Ki is less than 10 nM.

Turning to `CN1CCCC(Nc2cc(-c3c[nH]c4nccnc34)cc(Cl)n2)C1` (centres unmarked) [Example 27, 6-chloro-N-(1-methylpiperidin-3-yl)-4-(5H-pyrrolo[2,3-b]pyrazin-7-yl)pyridin-2-amine], the Ki was less than 10 nM.

As to `CN1CCCC(CNc2cc(-c3c[nH]c4nccnc34)cc(Cl)n2)C1` (centres unmarked) [Example 28, 6-chloro-N-[(1-methylpiperidin-3-yl)methyl]-4-(5H-pyrrolo[2,3-b]pyrazin-7-yl)pyridin-2-amine], the Ki is less than 10 nM.

Regarding `O=C(N[C@H]1CC[C@H](Nc2cc(-c3c[nH]c4nccnc34)cc(Cl)n2)CC1)[C@@H]1CCN1` [Example 30, (2S)—N-(trans-4-{[6-chloro-4-(5H-pyrrolo[2,3-b]pyrazin-7-yl)pyridin-2-yl]amino}cyclohexyl)azetidine-2-carboxamide], the Ki was less than 10 nM.

Regarding `O=C1CC(C(=O)N[C@H]2CC[C@H](Nc3cc(-c4c[nH]c5nccnc45)cc(Cl)n3)CC2)CC(=O)N1` [Example 31, N-(trans-4-{[6-chloro-4-(5H-pyrrolo[2,3-b]pyrazin-7-yl)pyridin-2-yl]amino}cyclohexyl)-2,6-dioxopiperidine-4-carboxamide], the Ki is less than 10 nM.

The compound `O[C@H]1CC[C@H](Nc2cc(-c3c[nH]c4ncc(Cl)nc34)cc(Cl)n2)CC1` [Example 33, trans 4-{[6-chloro-4-(2-chloro-5H-pyrrolo[2,3-b]pyrazin-7-yl)pyridin-2-yl]amino}cyclohexanol] showed a Ki of less than 10 nM.
